From patent publication US9533985B2, “Sulfonamide derivative and medicinal use thereof” (EA Pharma Co., Ltd., priority 2012, dated 2017)

Legend:
Type in all cases: cell-based
α4β7 integrin [1] = target: T1, α4β7 integrin (Homo sapiens (Human), UniProt P13612+P26010); assay: MAdCAM-1/α4β7 integrin binding inhibitory activity evaluation test (RPMI-8866 cell adhesion to MAdCAM-1/Fc); conditions: for Selectivity: IC50 in VCAM-1/α4β1 test divided by IC50 in MAdCAM-1/α4β7 test; for IC50: RPMI-8866 cells binding to recombinant mouse MAdCAM-1/Fc, no serum
T1 sequence (P13612 34-1032): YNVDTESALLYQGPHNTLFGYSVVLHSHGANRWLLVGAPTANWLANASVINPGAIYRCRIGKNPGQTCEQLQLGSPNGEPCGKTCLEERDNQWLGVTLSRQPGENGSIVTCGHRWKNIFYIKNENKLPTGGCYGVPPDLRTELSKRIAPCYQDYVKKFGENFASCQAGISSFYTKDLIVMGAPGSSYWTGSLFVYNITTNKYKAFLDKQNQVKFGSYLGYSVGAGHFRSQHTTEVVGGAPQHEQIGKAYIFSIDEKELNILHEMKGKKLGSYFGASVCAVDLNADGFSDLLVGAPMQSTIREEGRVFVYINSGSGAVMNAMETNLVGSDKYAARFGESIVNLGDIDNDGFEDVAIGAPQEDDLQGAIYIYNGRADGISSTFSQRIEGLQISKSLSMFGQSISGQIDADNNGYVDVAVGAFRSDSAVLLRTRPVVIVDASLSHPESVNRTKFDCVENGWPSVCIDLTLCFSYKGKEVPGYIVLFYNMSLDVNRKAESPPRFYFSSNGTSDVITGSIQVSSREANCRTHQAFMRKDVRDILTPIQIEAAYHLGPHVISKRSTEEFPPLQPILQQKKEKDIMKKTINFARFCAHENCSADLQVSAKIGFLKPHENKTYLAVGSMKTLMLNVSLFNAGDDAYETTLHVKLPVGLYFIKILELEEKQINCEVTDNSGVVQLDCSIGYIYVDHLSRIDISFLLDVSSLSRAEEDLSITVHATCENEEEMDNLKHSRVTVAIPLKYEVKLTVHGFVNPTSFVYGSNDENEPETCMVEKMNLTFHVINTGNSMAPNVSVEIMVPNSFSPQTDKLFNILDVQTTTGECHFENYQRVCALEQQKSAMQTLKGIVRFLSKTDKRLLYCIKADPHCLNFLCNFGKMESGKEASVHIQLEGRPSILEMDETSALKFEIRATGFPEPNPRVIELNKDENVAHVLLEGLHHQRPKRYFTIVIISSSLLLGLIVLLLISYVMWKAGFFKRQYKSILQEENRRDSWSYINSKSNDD
T1 sequence (P26010 20-798): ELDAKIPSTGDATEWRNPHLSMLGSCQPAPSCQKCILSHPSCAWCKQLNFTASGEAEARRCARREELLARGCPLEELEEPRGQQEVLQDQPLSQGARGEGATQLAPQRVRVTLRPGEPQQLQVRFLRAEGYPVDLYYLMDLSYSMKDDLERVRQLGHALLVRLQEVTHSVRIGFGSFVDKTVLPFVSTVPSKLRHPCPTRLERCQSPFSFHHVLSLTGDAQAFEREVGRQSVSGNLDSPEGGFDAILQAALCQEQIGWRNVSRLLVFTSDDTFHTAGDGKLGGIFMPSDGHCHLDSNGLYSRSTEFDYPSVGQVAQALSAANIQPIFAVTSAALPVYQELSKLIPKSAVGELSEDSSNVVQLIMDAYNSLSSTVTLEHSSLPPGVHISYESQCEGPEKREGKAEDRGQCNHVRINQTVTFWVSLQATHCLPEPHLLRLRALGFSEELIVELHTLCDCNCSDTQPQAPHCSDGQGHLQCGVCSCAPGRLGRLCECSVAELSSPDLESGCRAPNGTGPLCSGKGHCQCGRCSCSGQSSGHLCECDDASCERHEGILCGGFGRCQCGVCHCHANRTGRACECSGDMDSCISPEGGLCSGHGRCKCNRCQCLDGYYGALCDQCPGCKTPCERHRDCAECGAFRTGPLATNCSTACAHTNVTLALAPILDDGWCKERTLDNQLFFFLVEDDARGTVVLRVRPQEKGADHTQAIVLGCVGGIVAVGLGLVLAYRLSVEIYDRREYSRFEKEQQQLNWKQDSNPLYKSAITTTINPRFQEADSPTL
Protocol: The ability of test substances to inhibit the binding of a human B cell line, RPMI-8866, which is known to express α4β7 integrin, to MAdCAM-1 was measured. To 96-well microtiter plates, recombinant mouse MAdCAM-1/Fc (R&D systems) solution (0.75 μg/mL) diluted with buffer A (carbonate buffer solution, pH 9.6) was added at 50 μL/well, followed by incubation at 4° C. overnight. After washing once with PBS, Block Ace (Snow Brand Milk Products Company, Limited) was added at 150 μL/well, followed by incubation at room temperature for 2 hours. After removal, washing was conducted once with PBS. 100 μL of each test substance diluted with binding buffer (DMEM containing 40 mM HEPES, 0.2% BSA, and 4 mM MnCl2) to various concentrations and 100 μL of RPMI-8866 cells (2×10^6 cell/mL) were added to the plates coated with MAdCAM-1/Fc (5×10^5 cells/well), followed by incubation at 30° C. for 15 minutes to 60 minutes. After the cells were bound to each well, unbound cells were removed by washing with PBS. To the plates, buffer C (PBS containing 1.5% Triton X-100) was added at 50 μL/well to lyse the bound RPMI-8866 cells. To 30 μL of the cell lysate, 30 μL of Substrate Buffer (Promega, CytoTox 96 Non-Radioactive Cytotoxicity Assay) was added, and the reaction was allowed to proceed at room temperature in a dark place for 30 minutes. To each well, 30 μL of Stop Solution (Promega, CytoTox 96 Non-Radioactive Cytotoxicity Assay) was added, and the absorbance at 490 nm was measured by using a plate reader. Here, by the obtained absorbance, the activity of the lactate dehydrogenase (LDH) dissolved into the supernatant of each well was detected. In other words, the absorbance was proportional to the number of the RPMI-8866 cells bound to MAdCAM-1 and remaining on the plate. The test was duplicated. The binding ratios of the cells at various concentrations were determined, with the absorbance of a well containing no test substance taken as 100%. Then, the concentration IC50, at which 50% binding inhibition was achieved, was calculated. […] Note that the selectivity in the table was determined by dividing the IC50 value in VCAM-1/α4β1 Integrin Binding Inhibitory Activity Evaluation Test by the IC50 value in the MAdCAM-1/α4β7 integrin binding inhibitory activity evaluation test.

α4β7 integrin [2] = target: T1, α4β7 integrin; assay: MAdCAM-1/α4β7 integrin binding inhibitory activity evaluation test in the presence of serum (1); conditions: RPMI-8866 cells binding to mouse MAdCAM-1/Fc, human serum at final concentration of 50%; read-out: α4β7 with serum added, IC50
Protocol: The ability of test substances to inhibit the binding of a human B cell line, RPMI-8866, which is known to express α4β7 integrin, to MAdCAM-1 was measured. To 96-well microtiter plates, recombinant mouse MAdCAM-1/Fc (R&D systems) solution (1 μg/mL) diluted with buffer A (carbonate buffer, pH 9.6) was added at 50 μL/well, followed by incubation at 4° C. overnight. After washing once with PBS, Block Ace (Snow Brand Milk Products Company, Limited) was added at 150 μL/well, followed by incubation at room temperature for 2 hours. After removal, washing was conducted once with PBS. 100 μL of each test substance diluted with a binding buffer (DMEM containing 40 mM HEPES, 0.2% BSA, and 4 mM MnCl2) to various concentrations and 100 μL of RPMI-8866 cells (2×10^6 cell/mL) were added to plates coated with MAdCAM-1/Fc (5×10^5 cells/well) with human serum being contained at a final concentration of 50%, followed by incubation at 30° C. for 15 minutes to 60 minutes. After the cells were bound to each well, unbound cells were removed by washing with PBS. To the plates, buffer C (PBS containing 1.5% Triton X-100) was added at 50 μL/well to lyse the bound RPMI-8866 cells. To 30 μL of the cell lysate, 30 μL of Substrate Buffer (Promega, CytoTox 96 Non-Radioactive Cytotoxicity Assay) was added, and the reaction was allowed to proceed at room temperature in a dark place for 30 minutes. To each well, 30 μL of Stop Solution (Promega, CytoTox 96 Non-Radioactive Cytotoxicity Assay) was added, and the absorbance at 490 nm was measured by using a plate reader. Here, by the obtained absorbance, the activity of the lactate dehydrogenase (LDH) dissolved into the supernatant of each well was detected. In other words, the absorbance was proportional to the number of the RPMI-8866 cells bound to MAdCAM-1 and remaining on the plate. The test was duplicated. The binding ratios of the cells at various concentrations were determined, with the absorbance of a well containing no test substance taken as 100%. Then, the concentration IC50, at which 50% binding inhibition was achieved, was calculated.

α4β1 integrin = α4β1 integrin (Homo sapiens (Human), UniProt P05556+P13612); assay: VCAM-1/α4β1 integrin binding inhibitory activity evaluation test (Jurkat cell adhesion to VCAM-1/Fc); conditions: Jurkat cells binding to recombinant human VCAM-1/Fc
α4β1 integrin, sequence (P13612 34-1032): as the sequence (P13612 34-1032) above
α4β1 integrin, sequence (P05556 21-798): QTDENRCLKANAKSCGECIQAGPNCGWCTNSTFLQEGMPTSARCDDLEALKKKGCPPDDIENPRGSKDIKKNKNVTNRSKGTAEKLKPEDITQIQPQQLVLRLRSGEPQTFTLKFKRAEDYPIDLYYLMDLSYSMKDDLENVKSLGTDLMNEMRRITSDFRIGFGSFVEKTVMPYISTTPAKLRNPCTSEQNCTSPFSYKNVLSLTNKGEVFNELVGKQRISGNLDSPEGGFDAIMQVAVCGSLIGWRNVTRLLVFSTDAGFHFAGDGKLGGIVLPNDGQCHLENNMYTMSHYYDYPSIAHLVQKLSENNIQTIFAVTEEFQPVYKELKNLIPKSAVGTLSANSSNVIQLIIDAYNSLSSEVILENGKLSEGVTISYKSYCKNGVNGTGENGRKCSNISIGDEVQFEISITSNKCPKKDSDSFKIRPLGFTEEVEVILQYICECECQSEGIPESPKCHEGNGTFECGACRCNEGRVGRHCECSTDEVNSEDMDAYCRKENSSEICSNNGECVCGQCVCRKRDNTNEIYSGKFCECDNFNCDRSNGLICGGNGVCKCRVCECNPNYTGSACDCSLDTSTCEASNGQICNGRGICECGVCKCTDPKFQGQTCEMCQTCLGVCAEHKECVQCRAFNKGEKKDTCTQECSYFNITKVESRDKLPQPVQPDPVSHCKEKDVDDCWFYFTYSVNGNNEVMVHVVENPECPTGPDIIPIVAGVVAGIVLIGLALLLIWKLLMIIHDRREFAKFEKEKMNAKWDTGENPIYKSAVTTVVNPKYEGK
Protocol: The ability of test substances to inhibit the binding of a human T-cell line, Jurkat, which is known to express α4β1 integrin, to VCAM-1 was measured. To 96-well microtiter plates, recombinant human VCAM-1/Fc (R&D systems) solution (1 μg/mL) diluted with buffer A (carbonate buffer, pH 9.6) was added at 50 μL/well, followed by incubation at 4° C. overnight. After washing once with PBS, Block Ace (Snow Brand Milk Products Company, Limited) was added at 150 μL/well, followed by incubation at room temperature for 2 hours. After removal, washing was conducted once with PBS. 100 μL of each test substance diluted with a binding buffer (DMEM containing 40 mM HEPES, 0.2% BSA, and 4 mM MnCl2) to various concentrations and 100 μL of the Jurkat cells (2×10^6 cell/mL) were added to the plates coated with VCAM-1/Fc (5×10^5 cells/well), followed by incubation at 30° C. for 15 minutes to 60 minutes. After the cells were bound to each well, unbound cells were removed by washing with PBS. To the plates, buffer C (PBS containing 1.5% Triton X-100) was added at 50 μL/well to lyse the bound Jurkat cells. To 30 μL of the cell lysate, 30 μL of Substrate Buffer (Promega, CytoTox 96 Non-Radioactive Cytotoxicity Assay) was added, and the reaction was allowed to proceed at room temperature in a dark place for 30 minutes. To each well, 30 μL of Stop Solution (Promega, CytoTox 96 Non-Radioactive Cytotoxicity Assay) was added, and the absorbance at 490 nm was measured by using a plate reader. Here, by the obtained absorbance, the activity of the lactate dehydrogenase (LDH) dissolved into the supernatant of each well was detected. In other words, the absorbance was proportional to the number of the Jurkat cells bound to VCAM-1 and remaining on the plate. The test was duplicated. The binding ratios of the cells at various concentrations were determined, with the absorbance of a well containing no test substances taken as 100%. Then, the concentration IC50, at which 50% binding inhibition was achieved, was calculated. […] Note that, among the compounds synthesized in the corresponding Examples, the compounds in the free form (Compounds A-1 to A-39) were used as the test compounds. Hereinafter, the same shall apply.

| SMILES | Selectivity (α4β7 integrin [1]) | IC50 (α4β7 integrin [1]) | IC50 (α4β7 integrin [2]) | IC50 (α4β1 integrin) |
| --- | --- | --- | --- | --- |
| Cn1c(=O)n(-c2ccc(C[C@H](NC(=O)c3c(F)cc(NS(=O)(=O)c4ccc(-c5nccs5)cn4)cc3F)C(=O)O)cc2)c(=O)c2ccncc21 [Example 59, N-[2,6-Difluoro-4-({[5-(1,3-thiazol-2-yl)pyridin-2-yl]sulfonyl}amino)benzoyl]-4-(1-methyl-2,4-dioxo-1,4-dihydropyrido[3,4-d]pyrimidin-3(2H)-yl)-L-phenylalanine] | 130 | 0.17 nM | 4.1 nM | 22 nM |
| Cn1ccc(=O)n(-c2ccc(C[C@H](NC(=O)c3c(F)cc(NS(=O)(=O)c4ccc(-c5cncnc5)cc4)cc3F)C(=O)O)cc2)c1=O [Example 60, N-(2,6-Difluoro-4-{[(4-pyrimidin-5-yl-phenyl)sulfonyl]amino}benzoyl)-4-(3-methyl-2,6-dioxo-3,6-dihydropyrimidin-1 (2H)-yl)-L-phenylalanine] | 1100 | 1.1 nM | 5.5 nM | 1200 nM |
| Cn1c(=O)n(-c2ccc(C[C@H](NC(=O)c3c(F)cc(NS(=O)(=O)c4ccc(-n5nccn5)cc4)cc3F)C(=O)O)cc2)c(=O)c2ccncc21 [Example 61, N-[2,6-Difluoro-4-({[4-(2H-1,2,3-triazol-2-yl)phenyl]sulfonyl}amino)benzoyl]-4-(1-methyl-2,4-dioxo-1,4-dihydropyrido[3,4-d]pyrimidin-3(2H)-yl)-L-phenylalanine] | 330 | 0.46 nM | 8.7 nM | 150 nM |
| Cn1c(=O)n(-c2ccc(C[C@H](NC(=O)c3c(F)cc(NS(=O)(=O)c4ccc(-n5cccn5)cc4)cc3F)C(=O)O)cc2)c(=O)c2ccncc21 [Example 62, N-[2,6-Difluoro-4-({[4-(1H-pyrazol-1-yl)phenyl]sulfonyl}amino)benzoyl]-4-(1-methyl-2,4-dioxo-1,4-dihydropyrido[3,4-d]pyrimidin-3(2H)-yl)-L-phenylalanine] | 160 | 0.64 nM | 13 nM | 100 nM |
| Cn1ccc(=O)n(-c2ccc(C[C@H](NC(=O)c3c(F)cc(NS(=O)(=O)c4ccc(-c5cncnc5)cn4)cc3F)C(=O)O)cc2)c1=O [Example 63, N-(2,6-Difluoro-4-{[(5-pyrimidin-5-yl-pyridin-2-yl)sulfonyl]amino}benzoyl)-4-(3-methyl-2,6-dioxo-3,6-dihydropyrimidin-1(2H)-yl)-L-phenylalanine] | 600 | 0.8 nM | 11 nM | 480 nM |
| Cn1ccc(=O)n(-c2ccc(C[C@H](NC(=O)c3c(F)cc(NS(=O)(=O)c4ccc(-n5cccc5)cc4)cc3F)C(=O)O)cc2)c1=O [Example 64, N-[2,6-Difluoro-4-({[4-(1H-pyrrol-1-yl)phenyl]sulfonyl}amino)benzoyl]-4-(3-methyl-2,6-dioxo-3,6-dihydropyrimidin-1(2H)-yl)-L-phenylalanine] | 750 | 2 nM | 22 nM | 1500 nM |
| Cc1cnccc1-c1ccc(S(=O)(=O)Nc2cc(F)c(C(=O)N[C@@H](Cc3ccc(-n4c(=O)c5ccncc5n(C)c4=O)cc3)C(=O)O)c(F)c2)cc1 [Example 65, N-[2,6-Difluoro-4-({[4-(3-methylpyridin-4-yl)phenyl]sulfonyl}amino)benzoyl]-4-(1-methyl-2,4-dioxo-1,4-dihydropyrido[3,4-d]pyrimidin-3(2H)-yl)-L-phenylalanine] | 750 | 0.56 nM | 9.7 nM | 420 nM |
| Cn1c(=O)n(-c2ccc(C[C@H](NC(=O)c3c(F)cc(NS(=O)(=O)c4ccc(-c5ccoc5)cc4)cc3F)C(=O)O)cc2)c(=O)c2ccncc21 [Example 66, N-[2,6-Difluoro-4-({[4-(3-furyl)phenyl]sulfonyl}amino)benzoyl]-4-(1-methyl-2,4-dioxo-1,4-dihydropyrido[3,4-d]pyrimidin-3(2H)-yl)-L-phenylalanine] | 180 | 1.6 nM | 24 nM | 280 nM |
| Cn1c(=O)n(-c2ccc(C[C@H](NC(=O)c3c(F)cc(NS(=O)(=O)c4ccc(-c5ccncc5)cc4)cc3F)C(=O)O)cc2)c(=O)c2ccncc21 [Example 67, N-(2,6-Difluoro-4-{[(4-pyridin-4-yl-phenyl)sulfonyl]amino}benzoyl)-4-(1-methyl-2,4-dioxo-1,4-dihydropyrido[3,4-d]pyrimidin-3(2H)-yl)-L-phenylalanine] | 380 | 0.55 nM | 11 nM | 210 nM |
| Cn1c(=O)n(-c2ccc(C[C@H](NC(=O)c3c(F)cc(NS(=O)(=O)c4ccc(-c5ccnc(F)c5)cc4)cc3F)C(=O)O)cc2)c(=O)c2ccncc21 [Example 68, N-[2,6-Difluoro-4-({[4-(2-fluoropyridin-4-yl)phenyl]sulfonyl}amino)benzoyl]-4-(1-methyl-2,4-dioxo-1,4-dihydropyrido[3,4-d]pyrimidin-3(2H)-yl)-L-phenylalanine] | 920 | 0.13 nM | 9.8 nM | 120 nM |
